Where “and” joins values, the source holds several entries; their conditions need not be identical. Identical values can stand only once.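 Values below derive from 48-hour exposures of cells grown in 96-well plates, with endpoints linearly interpolated between the two concentrations bracketing the appropriate inhibition level. The concentration for 50% growth inhibition is given as GI50. TGI marks complete inhibition of growth.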
What was measured:
Experiment in all cases: NCI-60 cell line screen, 48 h
[1] = test system: SK-MEL-5 melanoma
[2] = test system: HCT-15 colon
[3] = test system: KM12 colon
[4] = test system: HT29 colon
[5] = test system: SNB-19 CNS
[6] = test system: IGROV1 ovarian
[7] = test system: HL-60(TB) leukemia
[8] = test system: 786-0 renal
[9] = test system: COLO 205 colon
[10] = test system: SK-OV-3 ovarian

With `Cc1cc(N)c2ccccc2[n+]1CCCCCCCCCC[n+]1c(C)cc(N)c2ccccc21` the GI50 [1] was 0.0679 µM and 0.367 µM, the GI50 [2] was 1.25 µM and 3.67 µM and the TGI [2] was > 50 µM and 25.9 µM and 81.9 µM. For the same molecule, the GI50 [3] was 0.145 µM, the TGI [3] was 0.65 µM and 1.49 µM and the GI50 [4] was 0.223 µM and 1.55 µM. For the same molecule, the TGI [4] was 1.51 µM and 5.47 µM and 4.62 µM, the TGI [5] was > 26.1 µM and 2.96 µM and 16.2 µM and the GI50 [6] was 0.538 µM and 2.17 µM. For the same molecule, the GI50 [7] was 0.142 µM, the TGI [7] was 0.545 µM and 2.14 µM and the GI50 [8] was 0.512 µM and 3.75 µM. For the same molecule, the TGI [8] was 10.9 µM and 21.3 µM and 25.5 µM.

`COc1ncnc2c(-c3ccco3)cn(COCc3ccccc3)c12` gave a GI50 [1] of 1.28 µM, a TGI [1] greater than 50 µM and a GI50 [3] greater than 50 µM. For the same molecule, the TGI [3] was greater than 50 µM, the GI50 [4] was greater than 50 µM and the TGI [4] was greater than 50 µM. It also gave a GI50 [5] greater than 50 µM, a TGI [5] greater than 50 µM and a GI50 [6] greater than 50 µM. It also gave a TGI [6] greater than 50 µM, a GI50 [9] greater than 50 µM and a TGI [9] greater than 50 µM. For the same molecule, the GI50 [7] was greater than 50 µM, the TGI [7] was greater than 50 µM and the GI50 [10] was greater than 50 µM. It also gave a TGI [10] greater than 50 µM, a GI50 [8] of 17.7 µM and a TGI [8] greater than 50 µM.

In the case of `COC(=O)C(=O)C(C(=O)C(=O)Nc1ccccc1C(N)=O)c1nc2ccc(C(=O)c3ccccc3)cc2[nH]c1=O` (configuration not stated), the TGI [1] was greater than 100 µM, the TGI [2] was greater than 100 µM and the TGI [3] was greater than 100 µM. It also gave a TGI [4] greater than 100 µM, a TGI [5] greater than 100 µM and a TGI [6] greater than 100 µM. It also gave a TGI [9] greater than 100 µM and a TGI [8] greater than 100 µM.

`Cc1ns/c(=N\C(=S)N(C)C)n1C` was tested, and the TGI [1] was greater than 100 µM, the TGI [2] was greater than 100 µM and the TGI [3] was greater than 100 µM. It also gave a TGI [4] greater than 100 µM, a TGI [5] greater than 100 µM and a TGI [6] greater than 100 µM. It also gave a TGI [7] greater than 100 µM, a TGI [10] greater than 100 µM and a TGI [8] greater than 100 µM.

`CCCCCCN1C(=O)CN=C1Nc1ccc2cc3ccc(NC4=NCC(=O)N4CCCCCC)cc3nc2c1` showed a GI50 [1] of 3.9 µM, a TGI [1] of 15.8 µM and a GI50 [3] of 1.47 µM. For the same molecule, the TGI [3] was 4.1 µM, the GI50 [4] was 1.81 µM and the TGI [4] was 4.2 µM. It also gave a GI50 [5] of 2.07 µM, a TGI [5] of 4.67 µM and a GI50 [6] of 1.85 µM. It also gave a TGI [6] of 4.28 µM, a GI50 [9] of 1.88 µM and a TGI [9] of 4.04 µM. For the same molecule, the GI50 [7] was 1.96 µM, the TGI [7] was 4.16 µM and the GI50 [10] was 11.6 µM. The TGI [10] was 28.9 µM, the GI50 [8] was 1.56 µM and the TGI [8] was 2.95 µM.

Work on `COc1ccc(N(Cc2cc(OC)c(OC)c(OC)c2)C2OC(=O)c3ccccc32)cc1` (configuration not stated) yielded a GI50 [1] of 0.474 µM, a TGI [1] of 53.1 µM and a GI50 [2] of 0.424 µM. For the same molecule, the TGI [2] was greater than 100 µM, the GI50 [3] was 0.434 µM and the TGI [3] was greater than 36.7 µM. For the same molecule, the GI50 [4] was 0.365 µM, the TGI [4] was greater than 43.1 µM and the GI50 [6] was 1.07 µM. It also gave a TGI [6] greater than 100 µM, a GI50 [9] of 0.39 µM and a TGI [9] of 5.77 µM. For the same molecule, the GI50 [7] was 0.308 µM, the TGI [7] was 2.25 µM and the GI50 [10] was 1.23 µM. The TGI [10] was greater than 100 µM, the GI50 [8] was 0.701 µM and the TGI [8] was greater than 100 µM.

`OCCCCC#Cc1ccccc1C#Cc1cnccn1` gave a GI50 [1] of 38.2 µM, a TGI [1] greater than 100 µM and a GI50 [2] of 33.3 µM. For the same molecule, the TGI [2] was greater than 100 µM, the GI50 [3] was 36.2 µM and the TGI [3] was greater than 100 µM. The GI50 [4] was 27.6 µM, the TGI [4] was greater than 100 µM and the GI50 [5] was 73.4 µM. The TGI [5] was greater than 100 µM, the GI50 [6] was 25.8 µM and the TGI [6] was 96 µM. The GI50 [9] was 32 µM, the TGI [9] was greater than 100 µM and the GI50 [10] was 46.3 µM. The TGI [10] was greater than 100 µM, the GI50 [8] was 34.7 µM and the TGI [8] was greater than 100 µM.

For `CN1C(=O)C23CC4=CC=CC(O)C4N2C(=O)C1(CO)SS3` (configuration not stated), the TGI [1] was 0.38 µM, the TGI [2] was 0.419 µM and the TGI [3] was 0.453 µM. The TGI [4] was 11.4 µM, the TGI [5] was 0.55 µM and the TGI [6] was 0.297 µM. For the same molecule, the TGI [9] was 0.292 µM, the TGI [10] was 2.75 µM and the TGI [8] was 0.222 µM.

Work on `O=C1/C(=C/c2ccccc2)CN(C(=O)Oc2ccc([N+](=O)[O-])cc2)C/C1=C\c1ccccc1` yielded a GI50 [1] of 4.12 µM, a TGI [1] of 5.38 µM and a GI50 [2] of 2.74 µM. The TGI [2] was 5.63 µM, the GI50 [3] was 1.88 µM and the TGI [3] was 2.89 µM and 5.49 µM. The TGI [4] was 4.36 µM and 4.04 µM, the GI50 [9] was 4.95 µM and the GI50 [7] was 1.73 µM. For the same molecule, the TGI [7] was 3.97 µM and 5.9 µM, the GI50 [8] was 1.74 µM and the TGI [8] was 3.55 µM.

`O=C1CC2Sc3ccccc3N=C2N1c1ccc(Cl)cc1Cl` (configuration not stated) was tested, and the TGI [1] was greater than 100 µM, the TGI [3] was greater than 100 µM and the TGI [4] was greater than 100 µM. It also gave a TGI [5] greater than 100 µM, a TGI [6] greater than 100 µM and a TGI [9] greater than 100 µM. The TGI [7] was 72.1 µM and the TGI [8] was greater than 100 µM.

`O=C(OCc1nc2ccc(Br)cc2c(=O)n1-c1ccccc1)c1ccccc1O` showed a TGI [1] of 68.7 µM, a TGI [3] greater than 100 µM and a TGI [4] greater than 100 µM. The TGI [6] was greater than 100 µM, the TGI [9] was greater than 100 µM and the TGI [7] was greater than 100 µM. The TGI [10] was greater than 100 µM and the TGI [8] was greater than 100 µM.

For `COC(=O)C1=C(O)C(C(=O)OC)[C@@]2(O)[C@@H](C(=O)OC)C(c3ccc(OC(=O)C(CC(C)C)NC(C)=O)cc3)C[C@@H]1[C@@H]2C(=O)OC` (some centres not stated), the GI50 [1] was 18.5 µM, the TGI [1] was greater than 100 µM and the GI50 [2] was 31.9 µM. It also gave a TGI [2] greater than 100 µM, a GI50 [3] of 28.2 µM and a TGI [3] greater than 100 µM. It also gave a GI50 [4] of 62.2 µM, a TGI [4] greater than 100 µM and a GI50 [5] of 37.1 µM. For the same molecule, the TGI [5] was greater than 100 µM, the GI50 [6] was greater than 100 µM and the TGI [6] was greater than 100 µM. The GI50 [9] was 46.6 µM, the TGI [9] was greater than 100 µM and the GI50 [7] was 43.9 µM. For the same molecule, the TGI [7] was greater than 100 µM, the GI50 [8] was 46.2 µM and the TGI [8] was greater than 100 µM.

Source: PubChem BioAssay (NCI)
